Experimental data published in ChEMBL document CHEMBL1926617, “Antifungal activities of novel non-azole molecules against S. cerevisiae and C. albicans” (Eur J Med Chem, 2012).
In brackets after ≈: the same amount, converted by molar mass. Activity calls are given as the source filed them. The calls are words filed in the database; no cut-off is given here.

Experiments:
Saccharomyces cerevisiae [1] = experiment: Antifungal activity against Saccharomyces cerevisiae ATCC 24657 assessed as growth inhibition after 24 to 48 hrs by agar plate bioassay; format: functional
Candida albicans [2] = experiment: Antifungal activity against Candida albicans assessed as morphogenetic transformation after 3 hrs by phase-contrast microscopy; format: functional
Candida albicans [3] = experiment: Antifungal activity against Candida albicans ATCC 32032 assessed as growth inhibition after 24 to 48 hrs by agar plate bioassay; format: functional
Saccharomyces cerevisiae [4] = experiment: Antifungal activity against Saccharomyces cerevisiae ATCC 24657 assessed as growth inhibition at 90.7 uM after 24 hrs by spectrophotometric bioassay; format: functional, organism-based
Saccharomyces cerevisiae [5] = experiment: Fungistatic activity against Saccharomyces cerevisiae ATCC 24657 assessed as cell proliferation at 90.7 uM after 24 hrs by agar plate bioassay relative to control; format: functional; details: ATCC 24657, 24 h
Saccharomyces cerevisiae [6] = experiment: Fungistatic activity against Saccharomyces cerevisiae ATCC 24657 assessed as cell proliferation at 90.7 uM after 24 hrs by spectrophotometric bioassay; format: functional, organism-based
Saccharomyces cerevisiae [7] = experiment: Antifungal activity against Saccharomyces cerevisiae ATCC 24657 assessed as growth inhibition at 90.7 uM after 24 hrs by agar plate bioassay; format: functional, organism-based
Saccharomyces cerevisiae [8] = experiment: Fungistatic activity against Saccharomyces cerevisiae ATCC 24657 assessed as cell growth at 90.7 uM after 48 hrs by spectrophotometric bioassay; format: functional, organism-based
Saccharomyces cerevisiae [9] = experiment: Antifungal activity against Saccharomyces cerevisiae ATCC 24657 assessed as growth at 90.7 uM after 48 hrs by spectrophotometric bioassay relative to control; format: functional
Saccharomyces cerevisiae [10] = experiment: Antifungal activity against Saccharomyces cerevisiae ATCC 24657 assessed as growth at 90.7 uM after 48 hrs by agar plate bioassay relative to control; format: functional
Saccharomyces cerevisiae [11] = experiment: Fungistatic activity against Saccharomyces cerevisiae ATCC 24657 assessed as cell proliferation compound after 24 to 48 hrs by spectrophotometric bioassay; format: functional, organism-based
Saccharomyces cerevisiae [12] = experiment: Fungistatic activity against Saccharomyces cerevisiae ATCC 24657 assessed as cell proliferation compound after 24 to 48 hrs by agar plate bioassay; format: functional, organism-based
Saccharomyces cerevisiae [13] = experiment: Antifungal activity against Saccharomyces cerevisiae ATCC 24657 assessed as growth inhibition after 24 to 48 hrs by spectrophotometric bioassay; format: functional

SMILES	MIC (Saccharomyces cerevisiae [1]) [µM]	also measured
CSc1sc(C(=O)N2CCC3(CCN(C(=O)CNC(=O)c4ccco4)CC3)C2)c2c1C(=O)CCC2	> 200	
Cc1nc(C)c(C(=O)N2CCC(c3nc(C(=O)N(CCC#N)Cc4ccco4)cs3)CC2)s1	> 200	
N#CC(C#N)=CNc1ccc2oc3ncccc3c(=O)c2c1	> 200	
COc1nc2c(c(-c3ccc[nH]3)c1C#N)Cc1ccccc1-2	> 200	
N#CC(c1ccc2c(c1)OCO2)N(Cc1ccccc1)C(=O)c1sc2ccccc2c1Cl (stereo not given)	> 200	
O=C(/C=C\c1ccco1)NCC(=O)N1CCC(c2nccn2CCc2ccsc2)CC1	> 200	
Cc1ccc(C(=O)CC(Sc2ccc3ccccc3c2)c2ccsc2)cc1 (stereo not given)	> 150	
CN(C/C=C/C#CC(C)(C)C)Cc1cccc2ccccc12 [TERBINAFINE]		MIC (Candida albicans [2]): 439 µM (≈ 128 µg/mL)
Cc1ccc(C(=O)N(C)Cc2ccco2)c(C2CCN(C(=O)c3cc(O)nc4ccccc34)CC2)n1	> 200	
c1ccc(Cc2ccncc2)cc1	> 200	MIC50 (Saccharomyces cerevisiae [1]): 100 µM (≈ 16.9 µg/mL)
CN(CCC#N)c1ccc(/C=N/c2ccc(C(=O)O)cc2)cc1	> 200	
O=[N+]([O-])c1ccc(Cc2ccncc2)cc1	> 200	MIC50 (Saccharomyces cerevisiae [1]): 120 µM (≈ 25.7 µg/mL)
CC1CCc2c(sc(NC(=O)Sc3nnc(-c4ccc(Cl)cc4)n3-c3ccccc3)c2C#N)C1 (stereo not given)		MIC (Candida albicans [3]): > 100 µM
COc1ccc(NC(=S)N/N=C/c2ccc(N(C)CCC#N)cc2)cc1	> 200	
COc1cc(C(=O)N(CCC#N)C2CC(C)CC(C)(C)C2)cc(OC)c1OC (stereo not given)	> 200	
O=C(CC(Sc1ccc2ccccc2c1)c1ccsc1)c1ccc(Cl)cc1 (stereo not given)	> 200	
COC(=O)c1scc(C)c1NC(=O)c1ccc(C(C)(C)C)cc1	> 200	
CCOc1ccc(/N=C/c2ccc(N(C)CCC#N)cc2)cc1	> 200	
CCC(C)n1ncn(-c2ccc(N3CCN(c4ccc(OCC5COC(Cn6cncn6)(c6ccc(Cl)cc6Cl)O5)cc4)CC3)cc2)c1=O (stereo not given) [ITRACONAZOLE]		growth inhibition (GI) (Saccharomyces cerevisiae [4]): inactive; inhibition at 90.7 µM (Saccharomyces cerevisiae [5]): 95%; Activity (Saccharomyces cerevisiae [6]): Active; MIC (Candida albicans [2]): > 90.7 µM; growth inhibition (GI) (Saccharomyces cerevisiae [7]): inactive; Activity (Saccharomyces cerevisiae [8]): inactive; fold change (FC) (Saccharomyces cerevisiae [9]): 1.5; fold change (FC) (Saccharomyces cerevisiae [10]): 1.5
Cc1n[nH]c(=O)c2noc(/C=C/c3ccsc3)c12	> 200	
N#CCN1CCN(c2nc3ccc(Cl)cc3s2)CC1	> 200	MIC50 (Saccharomyces cerevisiae [1]): 27 µM (≈ 7.91 µg/mL)
Cc1nn(C)c(=O)c2noc(/C=C/c3ccsc3)c12	120 (≈ 32.8 µg/mL)	Activity (Saccharomyces cerevisiae [11]): inactive; MIC50 (Saccharomyces cerevisiae [1]): 35 µM (≈ 9.57 µg/mL); Activity (Saccharomyces cerevisiae [12]): inactive
C=CCNc1ncnc2sc3c(c12)CCCC3		Activity (Saccharomyces cerevisiae [11]): inactive; growth inhibition (GI) (Saccharomyces cerevisiae [1]): inactive; MIC (Saccharomyces cerevisiae [13]): 100 µM (≈ 24.5 µg/mL); MIC50 (Saccharomyces cerevisiae [13]): 9.98 µM (≈ 2.45 µg/mL); Activity (Saccharomyces cerevisiae [12]): inactive
Cc1ccc(C(=O)N(C)Cc2ccco2)c(C2CCN(C(=O)c3cc(C)c(C)o3)CC2)n1	> 200	
CCCN(CCC)S(=O)(=O)c1ccc(C(=O)N/N=C/c2ccc(N(C)CCC#N)cc2)cc1	> 200	
N#C/C(=C\c1ccc(C(F)(F)F)cc1)c1ccc(OCc2c(F)cccc2Cl)cc1	> 200	
CN(CCC#N)c1ccc(C=C(C#N)C#N)cc1	> 200	
COc1ccc(CC2c3cc(OC)c(OC)cc3CCN2C=C(C#N)C#N)cc1OC (stereo not given)	> 200	
